The nature of data set [1]: Apparent permeability across apical to basal side in human Caco-2 cells. Type of data set: ADME, cell-based. (In general: Passage across Caco-2 layers is used to estimate intestinal permeability.)
A short description of data set [2]: Cmax in Sprague-Dawley rat at 5 mg/kg, po. Type of data set: ADME, organism-based. Also on record: route oral, dose 5 mg/kg. Conditions: in vivo.
Data set [3] can be described thus: Inhibition of p70S6K (unknown origin). More on the design: species or system Homo sapiens.
In data set [4] the target is Serine/threonine-protein kinase AKT (Homo sapiens, UniProt P31751+Q9Y243+P31749). Put plainly: Inhibition of Akt (unknown origin). The class given is protein assay.
The nature of data set [5]: Protein binding in human plasma assessed as unbound fraction. The class given is ADME, cell-free.
Another data set addresses Cytochrome P450 2C9 (Homo sapiens, UniProt P11712). Put plainly: Inhibition of CYP2C9 (unknown origin). The class given is ADME.
Data set [6] is described as follows: Intrinsic clearance in human liver microsomes. Type of data set: ADME, Microsome. Conditions: read-out: CLH. In general terms: Liver microsomes are a subcellular fraction often used to study metabolism.
The nature of data set [7]: Intrinsic clearance in mouse liver microsomes. Conditions: read-out: CLH. The class given is ADME, Microsome.
A short description of data set [8]: Thermodynamic solubility of the compound at pH 7.4. The class given is physicochemical. Conditions: buffer, read-out: Therm_solubility.
Data set [9] is described as follows: Clearance in Sprague-Dawley rat at 5 mg/kg, po or 5 mg/kg, iv. Conditions: in vivo. Type of data set: ADME, organism-based.
A short description of data set [10]: Clearance in Beagle dog at 0.5 mg/kg, po or 0.2 mg/kg, iv. The class given is ADME, organism-based, Canis lupus familiaris. Conditions: in vivo.
The nature of data set [11]: Half life in Sprague-Dawley rat at 5 mg/kg, po or 5 mg/kg, iv. The class given is ADME, organism-based. Conditions: in vivo.
The nature of data set [12]: Half life in Beagle dog at 0.5 mg/kg, po or 0.2 mg/kg, iv. Type of data set: ADME, organism-based, Canis lupus familiaris. Conditions: in vivo.
Data set [13] in a line: Oral bioavailability in Sprague-Dawley rat at 5 mg/kg. Conditions: in vivo. The class given is ADME, organism-based.
Data set [14] in a line: Oral bioavailability in cynomolgus monkey at 0.5 mg/kg. The class given is ADME, organism-based, Macaca fascicularis. Conditions: in vivo.
Data set [15] in a line: Cmax in cynomolgus monkey at 0.5 mg/kg, po. The class given is ADME, organism-based, Macaca fascicularis. Also on record: route oral, dose 0.5 mg/kg. Conditions: in vivo.
A short description of data set [16]: Toxicity in mouse xenografted with human MDA-MB-436 cells assessed as loss of body weight at 200 mg/kg, po administered qd measured after 15 days. Type of data set: organism-based. Conditions: in vivo, 360 h, time 15 day. Background: A xenograft is tissue or cells of one species grown in another, often human tumour cells in immunodeficient mice.
A short description of data set [17]: Toxicity in mouse xenografted with human MDA-MB-436 cells assessed as loss of body weight at 25 to 75 mg/kg, po administered qd measured for 28 days. Type of data set: organism-based. Conditions: in vivo, 672 h, dose 25-75 mg/kg, time 28 day.
For data set [18], the system named is MDA-MB-436. Put plainly: Antitumor activity against human MDA-MB-436 cells xenografted in mouse assessed as tumor growth inhibition at 25 mg/kg, po qd and measured for 28 days. The class given is functional. Conditions: MDA-MB-436, po, 672 h, time 28 day, read-out: TGI.
The subject of data set [19] is MDA-MB-436. Kind of data set: Antitumor activity against human MDA-MB-436 cells xenografted in mouse assessed as tumor growth inhibition at 75 mg/kg, po qd and measured for 28 days. Conditions: MDA-MB-436, po, 672 h, time 28 day, read-out: TGI. The class given is functional.
Data set [20] in a line: In vivo Inhibition of Akt/p70S6K in mouse xenografted with human MDA-MB-436 cells assessed as reduction in S6 phosphorylation in tumor at 200 mg/kg, po measured after 24 hrs. Type of data set: functional. Conditions: MDA-MB-436, po.

≈ marks a conversion by molar mass, not a printed value. Where only a bound is given, the exact number is not on record here.

Sequence of Cytochrome P450 2C9 (P11712 whole entry): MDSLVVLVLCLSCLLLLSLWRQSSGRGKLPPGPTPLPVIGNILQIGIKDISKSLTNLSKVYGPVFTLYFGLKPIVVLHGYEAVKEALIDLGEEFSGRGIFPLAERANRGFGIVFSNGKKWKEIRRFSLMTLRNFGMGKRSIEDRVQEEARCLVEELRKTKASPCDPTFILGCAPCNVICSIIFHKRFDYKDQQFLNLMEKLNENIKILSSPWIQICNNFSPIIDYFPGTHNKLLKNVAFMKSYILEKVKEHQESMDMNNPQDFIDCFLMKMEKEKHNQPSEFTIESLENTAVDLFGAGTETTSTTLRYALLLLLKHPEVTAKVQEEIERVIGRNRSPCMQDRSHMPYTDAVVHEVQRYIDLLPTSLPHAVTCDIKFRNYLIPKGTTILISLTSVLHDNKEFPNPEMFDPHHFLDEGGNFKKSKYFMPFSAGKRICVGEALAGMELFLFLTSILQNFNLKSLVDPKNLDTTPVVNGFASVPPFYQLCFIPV

As for `NC(=O)c1c(N)ncnc1N1CCC(c2nc(-c3ccc(F)c(C(F)(F)F)c3)cn2CCN2CCC2)CC1`, the Papp A→B in data set [1] worked out at 5.3 ×10⁻⁶ cm/s. In addition, the Cmax in [2] was 13 ng/mL; in data set [15], 9.7 ng/mL. The results for the IC50 (in data set [3]; in data set [4]; against Cytochrome P450 2C9) were 3 nM, 16 nM and above 20000 nM, respectively. Also, the unbound share (fraction unbound) in [5] was found to be 0.21. Moreover, the microsomal CLint in [6] was 46 µL/min/mg; in data set [7], 11 µL/min/mg. In addition, the solubility thermodynamic in [8] came out at 4 µg/mL (≈ 7.51 µM). In addition, the values for the clearance in data set [9] and in data set [10] were 312 mL/min/kg and 4.67 mL/min/kg, respectively. Further, the half-life in [11] is 1.5 h; in data set [12], 19 h. Moreover, the figures for the bioavailability in data set [13] and in data set [14] were 17% and 23%, respectively. Besides, the values for the Activity in data set [16] and in [17] were above 5% and below 5%, respectively. The inhibition in vivo at 25 mg/kg in the data set with MDA-MB-436 [18] came out at 81%. Besides, in the data set on MDA-MB-436 [19], the inhibition in vivo at 75 mg/kg came out at 100%. Also, the inhibition in vivo at 200 mg/kg in data set [20] amounted to 92%.

The Papp A→B is how fast a substance crosses the layer from the apical side. One may read the Cmax as the highest concentration seen after dosing. The term IC50 denotes the concentration needed to halve the response being measured. The fraction unbound is the share of the substance not bound to proteins or other matrix. By half-life is commonly meant the time needed for the level to fall by half in the phase considered. As usually defined, the bioavailability is the share of a dose that reaches the circulation, judged against a reference dose that is usually intravenous.

For the origin of these results see ChEMBL document CHEMBL4823315 (Bioorg Med Chem Lett, 2021).
